Read-outs that look alike come from different tables or passages of the source.
Molecular target: T1, HCV NS3/4A protease complex, BMS strain (UniProt P27958, species not given/STRAIN_BMS)
T1 construct: for H77 and J4L6S; fused on or other part: Three-lysine solubilizing tail at the end of NS4A, for the H77 and J4L6S constructs; Purification on Ni-NTA and the pET21b vector imply a His tag
Test: FRET peptide assay to monitor HCV NS3/4A proteolytic activity (BMS strain)
Assay type: biochemical, HCV genotype 1a
Excerpt: HCV NS3 protease complexes, derived from the BMS strain, H77 strain or J4L6S strain, were generated, as described below. These purified recombinant proteins were generated for use in a homogeneous assay (see below) to provide an indication of how effective compounds of the present disclosure would be in inhibiting HCV NS3 proteolytic activity.
Serum from an HCV-infected patient was obtained from Dr. T. Wright, San Francisco Hospital. An engineered full-length cDNA (compliment deoxyribonucleic acid) template of the HCV genome (BMS strain) was constructed from DNA fragments obtained by reverse transcription-PCR (RT-PCR) of serum RNA (ribonucleic acid) and using primers selected on the basis of homology between other genotype 1a strains. From the determination of the entire genome sequence, a genotype 1a was assigned to the HCV isolate according to the classification of Simmonds et al. (See P Simmonds, K A Rose, S Graham, S W Chan, F McOmish, B C Dow, E A Follett, P L Yap and H Marsden, J. Clin. Microbiol., 31(6), 1493-1503 (1993)). […] The infectious clones, H77 (1a genotype) and J4L6S (1b genotype) were obtained from R. Purcell (NIH) and the sequences are published in Genbank (AAB67036, see Yanagi, M., Purcell, R. H., Emerson, S. U. and Bukh, J. Proc. Natl. Acad. Sci. U.S.A. 94(16), 8738-8743 (1997); AF054247, see Yanagi, M., St Claire, M., Shapiro, M., Emerson, S. U., Purcell, R. H. and Bukh, J, Virology 244 (1), 161-172. (1998)).
The H77 and J4L6S strains were used for production of recombinant NS3/4A protease complexes. DNA encoding the recombinant HCV NS3/4A protease complex (amino acids 1027 to 1711) for these strains were manipulated as described by P. Gallinari et al. (see Gallinari P, Paolini C, Brennan D, Nardi C, Steinkuhler C, De Francesco R. Biochemistry. 38(17):5620-32, (1999)). Briefly, a three-lysine solubilizing tail was added at the 3′-end of the NS4A coding region. The cysteine in the P1 position of the NS4A-NS4B cleavage site (amino acid 1711) was changed to a glycine to avoid the proteolytic cleavage of the lysine tag. Furthermore, a cysteine to serine mutation was introduced by PCR at amino acid position 1454 to prevent the autolytic cleavage in the NS3 helicase domain. The variant DNA fragment was cloned in the pET21b bacterial expression vector (Novagen) and the NS3/4A complex was expressed in Escherichia. coli strain BL21 (DE3) (Invitrogen) following the protocol described by P. Gallinari et al. (see Gallinari P, Brennan D, Nardi C, Brunetti M, Tomei L, Steinkuhler C, De Francesco R., J Virol. 72(8):6758-69 (1998)) with modifications. Briefly, the NS3/4A protease complex expression was induced with 0.5 millimolar (mM) Isopropyl β-D-1-thiogalactopyranoside (IPTG) for 22 hours (h) at 20° C. A typical fermentation (1 Liter (L)) yielded approximately 10 grams (g) of wet cell paste. The cells were resuspended in lysis buffer (10 mL/g) consisting of 25 mM N-(2-Hydroxyethyl)Piperazine-N′-(2-Ethane Sulfonic acid) (HEPES), pH 7.5, 20% glycerol, 500 mM Sodium Chloride (NaCl), 0.5% Triton X-100, 1 microgram/milliliter (“μg/mL”) lysozyme, 5 mM Magnesium Chloride (MgCl2), 1 μg/ml DnaseI, 5 mM β-Mercaptoethanol (βME), Protease inhibitor-Ethylenediamine Tetraacetic acid (EDTA) free (Roche), homogenized and incubated for 20 minutes (min) at 4° C. The homogenate was sonicated and clarified by ultra-centrifugation at 235000 g for 1 h at 4° C. Imidazole was added to the supernatant to a final concentration of 15 mM and the pH adjusted to 8.0. The crude protein extract was loaded on a Nickel-Nitrilotriacetic acid (Ni-NTA) column pre-equilibrated with buffer B (25 mM HEPES, pH 8.0, 20% glycerol, 500 mM NaCl, 0.5% Triton X-100, 15 mM imidazole, 5 mM βME). The sample was loaded at a flow rate of 1 mL/min. The column was washed with 15 column volumes of buffer C (same as buffer B except with 0.2% Triton X-100). The protein was eluted with 5 column volumes of buffer D (same as buffer C except with 200 mM Imidazole). […]

T1 sequence (P27958 1027-1657, change not shown, one chain of several): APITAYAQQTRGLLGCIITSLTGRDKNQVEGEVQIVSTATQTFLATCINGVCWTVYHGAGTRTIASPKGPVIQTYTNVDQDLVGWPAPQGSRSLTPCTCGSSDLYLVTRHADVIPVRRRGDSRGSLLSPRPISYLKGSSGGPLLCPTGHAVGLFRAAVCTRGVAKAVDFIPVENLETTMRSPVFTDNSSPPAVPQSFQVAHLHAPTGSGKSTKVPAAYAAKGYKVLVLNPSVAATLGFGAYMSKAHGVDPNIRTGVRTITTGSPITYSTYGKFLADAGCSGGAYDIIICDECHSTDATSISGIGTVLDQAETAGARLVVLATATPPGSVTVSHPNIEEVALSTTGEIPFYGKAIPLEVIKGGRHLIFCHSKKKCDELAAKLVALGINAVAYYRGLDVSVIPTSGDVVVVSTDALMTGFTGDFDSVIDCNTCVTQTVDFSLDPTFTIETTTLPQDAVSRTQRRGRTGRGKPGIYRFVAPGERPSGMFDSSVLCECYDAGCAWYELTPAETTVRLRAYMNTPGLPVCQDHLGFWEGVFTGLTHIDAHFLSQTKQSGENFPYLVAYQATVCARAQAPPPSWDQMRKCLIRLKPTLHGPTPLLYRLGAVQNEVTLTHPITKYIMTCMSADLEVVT

COc1c(O[C@@H]2C[C@H]3C(=O)N[C@]4(C(=O)NS(=O)(=O)C5CC5)C[C@H]4/C=C\CCCCC[C@H](NC(=O)OC(C)(C)C)C(=O)N3C2)ccc2c(Cl)nccc12 [Compound 3] gave an IC50 (BMS strain, read-out: IC50 against the NS3/4A BMS strain in the enzyme assay) of 2.8 nM and an IC50 (NS3/4A BMS strain, read-out: IC50 Activity Range) of less than 100 nM.
